Assays:
KRAS G12V = KRAS G12V (Homo sapiens (Human), UniProt P01116+P62937, G12V); experiment: Ras-Raf disruption/FRET/MOA assay (BRAF RBD, Cyclophilin A); assay type: biochemical; conditions: read-out: KRAS G12V FRET IC50
Method in brief: (§1)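 Ras-GMPPNP (12.5 nM), BRAF RBD (50 nM) and 25 μM Cyclophilin A were incubated with compound for 3 h at 25° C, then detected 1.5 h with anti-His Eu and anti-GST APC; IC50 values follow from the reduced TR-FRET ratio.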

NRAS G12C = NRAS G12C (Homo sapiens (Human), UniProt P01111+P62937, G12C); experiment: as above; assay type: biochemical; conditions: read-out: NRAS G12C FRET data IC50
Method in brief: (§2)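 TR-FRET read after 1.5 h with 10 nM anti-His Eu-W1024 and 50 nM anti-GST APC, following 3 h at 25 °C of GMPPNP-loaded His6-Ras (12.5 nM), GST-BRAF RBD (50 nM) and Cyclophilin A (25 μM) with compound from 30 μM final, 10 points, 3-fold. IC50 reported; pH 7.3 HEPES, 100 mM NaCl.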

NRAS WT = NRAS WT (Homo sapiens (Human), UniProt P01111+P62937); experiment: as above; assay type: biochemical
Method in brief: as §2

KRAS G12D = KRAS G12D (Homo sapiens (Human), UniProt P01116+P62937, G12D); experiment: as above; assay type: biochemical; conditions: read-out: KRAS G12D FRET IC50
Method in brief: as §1

KRAS Q61H = KRAS Q61H (Homo sapiens (Human), UniProt P01116+P62937, Q61H); experiment: as above; assay type: biochemical
Method in brief: as §1

NRAS Q61R = NRAS Q61R (Homo sapiens (Human), UniProt P01111+P62937, Q61R); experiment: as above; assay type: biochemical
Method in brief: as §2

KRAS G13C = KRAS G13C (Homo sapiens (Human), UniProt P01116+P62937, G13C); experiment: as above; assay type: biochemical; conditions: read-out: KRAS G13C FRET IC50
Method in brief: as §1

KRAS WT = KRAS WT (Homo sapiens (Human), UniProt P01116+P62937); experiment: as above; assay type: biochemical; conditions: read-out: KRAS WT FRET data IC50
Method in brief: as §1

KRAS G12C = KRAS G12C (Homo sapiens (Human), UniProt P01116+P62937, G12C); experiment: as above; assay type: biochemical; conditions: read-out: KRAS G12C FRET IC50
Method in brief: as §1

NRAS Q61K = NRAS Q61K (Homo sapiens (Human), UniProt P01111+P62937, Q61K); experiment: as above; assay type: biochemical
Method in brief: as §2

KRAS G12S = KRAS G12S (Homo sapiens (Human), UniProt P01116+P62937, G12S); experiment: as above; assay type: biochemical; conditions: read-out: KRAS G12S FRET IC50
Method in brief: as §1

KRAS G13D = KRAS G13D (Homo sapiens (Human), UniProt P01116+P62937, G13D); experiment: as above; assay type: biochemical; conditions: read-out: KRAS G13D FRET data IC50
Method in brief: as §1

[1] = system: K-Ras G12C (NCI-H358 cells); experiment: Potency assay: pERK in NCI-H358 cells; assay type: cell-based, human; conditions: Homo sapiens; NCI-H358 cells, 4 hours; read-out: pERK EC50 (H358 KRAS G12C)
Method in brief: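 Cells plated the day before were exposed for 4 h at 37° C, 5% CO2 to a 10-point, 3-fold DMSO dilution series (10 mM top stock), in duplicate. Phospho-ERK was read by AlphaLISA SureFire Ultra or by In-Cell Western with DRAQ5 DNA stain, and IC50 came from a 4-parameter sigmoidal fit.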

[2] = system: Capan-1 cells (K-Ras G12V); experiment: CellTiter-Glo cell viability, Capan-1; assay type: cell-based, human; conditions: Homo sapiens, CAPAN-1, 120 h, K-Ras G12V, 5-day treatment; read-out: Capan-1 Cell Viability IC50
Method in brief: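 Viability is read as luminescence after five days of compound exposure, with plates first equilibrated to room temperature for roughly 30 minutes. Each signal is expressed as a percentage of the mean DMSO control, and curves are fitted by four-parameter logistic regression.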

Sequence of NRAS Q61K (P01111 whole entry Q61K): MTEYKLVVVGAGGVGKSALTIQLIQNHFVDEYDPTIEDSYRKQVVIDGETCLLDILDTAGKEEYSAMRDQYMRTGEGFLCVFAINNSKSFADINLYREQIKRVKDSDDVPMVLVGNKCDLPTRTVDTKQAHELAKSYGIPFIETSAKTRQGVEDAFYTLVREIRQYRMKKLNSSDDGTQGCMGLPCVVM
Sequence of NRAS Q61K (P62937 whole entry): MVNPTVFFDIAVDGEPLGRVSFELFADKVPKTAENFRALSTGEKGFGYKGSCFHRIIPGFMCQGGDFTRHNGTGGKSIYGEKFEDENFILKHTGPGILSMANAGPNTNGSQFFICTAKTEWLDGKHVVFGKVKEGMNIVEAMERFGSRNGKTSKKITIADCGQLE
Sequence of NRAS Q61R (P01111 whole entry Q61R): as the sequence (P01111 whole entry Q61K) above, with K61R counted along it
Sequence of NRAS Q61R (P62937 whole entry): as the sequence (P62937 whole entry) above
Sequence of KRAS G12C (P01116-2 other isoform, or with tags, fused parts or gaps G12C): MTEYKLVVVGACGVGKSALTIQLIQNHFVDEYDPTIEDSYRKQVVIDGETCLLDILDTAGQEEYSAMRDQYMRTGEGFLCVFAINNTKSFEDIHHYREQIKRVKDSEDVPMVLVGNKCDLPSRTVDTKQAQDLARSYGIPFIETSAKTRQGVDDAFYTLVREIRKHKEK
Sequence of KRAS G12C (P62937 whole entry): as the sequence (P62937 whole entry) above
Sequence of KRAS G13C (P01116 other isoform, or with tags, fused parts or gaps G13C): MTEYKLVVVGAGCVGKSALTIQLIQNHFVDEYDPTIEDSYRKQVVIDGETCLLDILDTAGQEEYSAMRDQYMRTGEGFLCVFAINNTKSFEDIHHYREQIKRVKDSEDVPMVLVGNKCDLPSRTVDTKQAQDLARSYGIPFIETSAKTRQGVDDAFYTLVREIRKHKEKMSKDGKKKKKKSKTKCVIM
Sequence of KRAS G13C (P62937 whole entry): as the sequence (P62937 whole entry) above
Sequence of KRAS Q61H (P01116 other isoform, or with tags, fused parts or gaps Q61H): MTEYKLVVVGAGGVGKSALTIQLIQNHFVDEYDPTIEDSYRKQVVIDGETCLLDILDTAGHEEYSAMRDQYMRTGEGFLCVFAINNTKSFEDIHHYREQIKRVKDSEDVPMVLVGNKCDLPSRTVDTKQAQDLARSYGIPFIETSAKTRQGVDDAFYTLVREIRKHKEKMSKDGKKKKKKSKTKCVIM
Sequence of KRAS Q61H (P62937 whole entry): as the sequence (P62937 whole entry) above
Sequence of KRAS G12D (P01116 other isoform, or with tags, fused parts or gaps G12D): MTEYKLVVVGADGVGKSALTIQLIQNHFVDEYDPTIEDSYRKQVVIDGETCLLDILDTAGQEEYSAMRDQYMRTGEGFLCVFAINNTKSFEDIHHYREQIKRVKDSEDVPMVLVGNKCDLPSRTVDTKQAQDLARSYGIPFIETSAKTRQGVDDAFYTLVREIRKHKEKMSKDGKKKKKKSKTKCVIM
Sequence of KRAS G12D (P62937 whole entry): as the sequence (P62937 whole entry) above
Sequence of KRAS G12V (P01116 other isoform, or with tags, fused parts or gaps G12V): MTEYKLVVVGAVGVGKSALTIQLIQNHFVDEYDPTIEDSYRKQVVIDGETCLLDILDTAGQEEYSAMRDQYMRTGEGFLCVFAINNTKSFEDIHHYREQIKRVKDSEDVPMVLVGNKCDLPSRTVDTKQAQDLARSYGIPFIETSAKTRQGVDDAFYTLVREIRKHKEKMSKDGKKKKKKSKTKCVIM
Sequence of KRAS G12V (P62937 whole entry): as the sequence (P62937 whole entry) above
Sequence of KRAS WT (P01116 other isoform, or with tags, fused parts or gaps): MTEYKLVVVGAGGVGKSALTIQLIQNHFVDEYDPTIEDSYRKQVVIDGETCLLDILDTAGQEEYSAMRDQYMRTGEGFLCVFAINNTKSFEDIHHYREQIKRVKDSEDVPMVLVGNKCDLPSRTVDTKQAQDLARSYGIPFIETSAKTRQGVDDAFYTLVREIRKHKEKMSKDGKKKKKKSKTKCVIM
Sequence of KRAS WT (P62937 whole entry): as the sequence (P62937 whole entry) above
Sequence of KRAS G12S (P01116 other isoform, or with tags, fused parts or gaps G12S): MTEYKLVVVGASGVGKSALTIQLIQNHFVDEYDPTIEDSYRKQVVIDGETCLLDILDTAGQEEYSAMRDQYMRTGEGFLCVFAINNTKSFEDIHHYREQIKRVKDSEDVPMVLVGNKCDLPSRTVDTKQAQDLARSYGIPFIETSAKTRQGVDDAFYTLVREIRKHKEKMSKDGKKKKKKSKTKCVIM
Sequence of KRAS G12S (P62937 whole entry): as the sequence (P62937 whole entry) above
Sequence of KRAS G13D (P01116 other isoform, or with tags, fused parts or gaps G13D): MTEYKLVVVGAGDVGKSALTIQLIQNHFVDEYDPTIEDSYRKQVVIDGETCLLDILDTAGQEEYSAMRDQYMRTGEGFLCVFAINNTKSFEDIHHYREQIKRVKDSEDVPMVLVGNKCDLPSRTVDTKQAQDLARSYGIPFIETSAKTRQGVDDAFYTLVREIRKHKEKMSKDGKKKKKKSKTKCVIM
Sequence of KRAS G13D (P62937 whole entry): as the sequence (P62937 whole entry) above
Sequence of NRAS G12C (P01111 whole entry G12C): as the sequence (P01111 whole entry Q61K) above, with G12C, K61Q counted along it
Sequence of NRAS G12C (P62937 whole entry): as the sequence (P62937 whole entry) above
Sequence of NRAS WT (P01111 whole entry): as the sequence (P01111 whole entry Q61K) above, with K61Q counted along it
Sequence of NRAS WT (P62937 whole entry): as the sequence (P62937 whole entry) above

Row | SMILES | IC50 (KRAS G12V) | IC50 (NRAS G12C) | IC50 (NRAS WT) | IC50 (KRAS G12D) | IC50 (KRAS Q61H) | IC50 (NRAS Q61R) | IC50 (KRAS G13C) | IC50 (KRAS WT) | IC50 (KRAS G12C) | IC50 (NRAS Q61K) | IC50 (KRAS G12S) | IC50 (KRAS G13D) | EC50 [1] | IC50 [2]
1 | CCn1c(-c2cccnc2[C@H](C)OC)c2c3cc(ccc31)-c1cc(O)cc(c1)C[C@H](NC(=O)[C@@H]1CCCCCN1C(C)=O)C(=O)N1CCC[C@H](N1)C(=O)OCC(C)(C)C2 [Compound A176] | 100 to 1000 nM | 100 to 1000 nM | 100 to 1000 nM | 1000 to 10000 nM | 100 to 1000 nM | 1000 to 10000 nM | 100 to 1000 nM | 100 to 1000 nM | 100 to 1000 nM | 100 to 1000 nM | 1000 to 10000 nM | 100 to 1000 nM | < 5000 nM | 1000 to 10000 nM
2 | CCn1c(-c2cccnc2[C@H](C)OC)c2c3cc(ccc31)-c1csc(n1)C[C@H](NC(=O)N1CCN(C)CC1)C(=O)N1CCC[C@H](N1)C(=O)OCC(C)(C)C2 [Compound A265, N-((6^3S,4S,Z)-1^1-ethyl-1^2-(2-((S)-1-methoxyethyl)pyridin-3-yl)-10, 10-dimethyl-5,7-dioxo-6^1,6^2,6^3,6^4,6^5,6^6-hexahydro-1^1H-8-oxa-2 (4,2)-thiazola-1 (5,3)-indola-6 (1,3)-pyridazinacycloundecaphane-4-yl)-4-methylpiperazine-1-carboxamide] | 10 to 100 nM | 10 to 100 nM | 100 to 1000 nM | 100 to 1000 nM | 100 to 1000 nM | 100 to 1000 nM | 100 to 1000 nM | 100 to 1000 nM | 10 to 100 nM | 100 to 1000 nM | 100 to 1000 nM | 100 to 1000 nM | – | 1000 to 10000 nM
3 | CCn1c(-c2cccnc2[C@H](C)OC)c2c3cc(ccc31)-c1csc(n1)C[C@H](NC(=O)[C@H](C(C)C)N(C)C(=O)N1[C@H](C)CN(C)C[C@@H]1C)C(=O)N1CCC[C@H](N1)C(=O)OCC(C)(C)C2 [Compound A272] | > 10000 nM | 1000 to 10000 nM | 1000 to 10000 nM | 1000 to 10000 nM | 100 to 1000 nM | 1000 to 10000 nM | 1000 to 10000 nM | 1000 to 10000 nM | 1000 to 10000 nM | 1000 to 10000 nM | 1000 to 10000 nM | 1000 to 10000 nM | – | 1000 to 10000 nM
4 | CCn1c(-c2cccnc2[C@H](C)OC)c2c3cc(ccc31)-c1cc(c3cn[nH]c3c1)C[C@H](NC(=O)[C@H](C(C)C)N(C)C(C)=O)C(=O)N1CCC[C@H](N1)C(=O)OCC(C)(C)C2 [Compound A388] | 1000 to 10000 nM | 1000 to 10000 nM | 1000 to 10000 nM | > 10000 nM | 100 to 1000 nM | 1000 to 10000 nM | 100 to 1000 nM | 1000 to 10000 nM | 1000 to 10000 nM | 1000 to 10000 nM | 1000 to 10000 nM | 1000 to 10000 nM | < 5000 nM | 1000 to 10000 nM
5 | CCn1c(-c2cccnc2[C@H](C)OC)c2c3cc(ccc31)-c1csc(n1)C[C@H](NC(=O)[C@H](C(C)C)N(C)C(=O)N1CC[C@@]13CCCNC3)C(=O)N1CCC[C@H](N1)C(=O)OCC(C)(C)C2 [Compound A435] | 1000 to 10000 nM | 100 to 1000 nM | 100 to 1000 nM | 100 to 1000 nM | 100 to 1000 nM | 1000 to 10000 nM | 100 to 1000 nM | 100 to 1000 nM | 100 to 1000 nM | 1000 to 10000 nM | 100 to 1000 nM | 100 to 1000 nM | < 5000 nM | 1000 to 10000 nM
6 | CCn1c(-c2cccnc2[C@H](C)OC)c2c3cc(ccc31)-c1csc(n1)C[C@H](NC(=O)[C@H](C(C)C)N(C)C(=O)N1CC[C@@H]3CN(C)C[C@@H]31)C(=O)N1CCC[C@H](N1)C(=O)OCC(C)(C)C2 [Compound A470] | 1000 to 10000 nM | 1000 to 10000 nM | 1000 to 10000 nM | 1000 to 10000 nM | 100 to 1000 nM | 1000 to 10000 nM | 100 to 1000 nM | 1000 to 10000 nM | 1000 to 10000 nM | 1000 to 10000 nM | 1000 to 10000 nM | 1000 to 10000 nM | < 5000 nM | 100 to 1000 nM
7 | CCn1c(-c2cccnc2[C@H](C)OC)c2c3cc(ccc31)-c1csc(n1)C[C@H](NC(=O)[C@H](C(C)C)N(C)C(=O)N1C[C@@H]3[C@@H](C1)OCCN3C)C(=O)N1CCC[C@H](N1)C(=O)OCC(C)(C)C2 [Compound A472] | 100 to 1000 nM | 100 to 1000 nM | 100 to 1000 nM | 1000 to 10000 nM | 100 to 1000 nM | 100 to 1000 nM | 100 to 1000 nM | 100 to 1000 nM | 100 to 1000 nM | 100 to 1000 nM | 100 to 1000 nM | 1000 to 10000 nM | – | 10 to 100 nM
8 | CCn1c(-c2cccnc2[C@H](C)OC)c2c3cc(ccc31)-c1csc(n1)C[C@H](NC(=O)[C@H](C(C)C)N(C)C(=O)N1CCOCC13COC3)C(=O)N1CCC[C@H](N1)C(=O)OCC(C)(C)C2 [Compound A474] | 100 to 1000 nM | 100 to 1000 nM | 100 to 1000 nM | 1000 to 10000 nM | 10 to 100 nM | 100 to 1000 nM | 100 to 1000 nM | 100 to 1000 nM | 100 to 1000 nM | 100 to 1000 nM | 100 to 1000 nM | 1000 to 10000 nM | < 5000 nM | 10 to 100 nM
9 | CCn1c(-c2cc(N3CCN(C)CC3)cnc2[C@H](C)OC)c2c3cc(ccc31)-c1csc(n1)C[C@H](NC(=O)[C@H](C(C)C)N(C)C(=O)[C@@H]1OCC[C@@H]1c1cccnc1)C(=O)N1CCC[C@H](N1)C(=O)OCC(C)(C)C2 [Compound A490] | 100 to 1000 nM | 100 to 1000 nM | 100 to 1000 nM | 1000 to 10000 nM | 100 to 1000 nM | 100 to 1000 nM | 100 to 1000 nM | 100 to 1000 nM | 100 to 1000 nM | 100 to 1000 nM | 100 to 1000 nM | 1000 to 10000 nM | < 5000 nM | 10 to 100 nM
